Like-named read-outs stand apart in the source and are kept apart here.
Assays:
[1] = system: HBeAg (surrogate marker for cccDNA) in HepDES19 cells; assay: Engineered HepDES19 primary screen assay (HBeAg ELISA); format: cell-based, HBV
Method in brief: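 HepDES19 cells were induced by Tet withdrawal for 8 days, then treated with half-log compound dilutions (1% DMSO final) for 5 days at 37 °C. HBeAg was measured by ELISA as the cccDNA surrogate, viability by CCK-8, and IC50 from a 4-parameter logistic fit.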

[2] = system: HBsAg in HBV-infected PHH; assay: Cryopreserved primary human hepatocytes (PHH) HBV infection assay, extracellular HBsAg (CLIA); format: cell-based
Protocol: This assay is used to confirm the anti-HBV effect of the compounds in HBV PHH infection assay. Cryopreserved PHH (BioreclamationIVT, Lot YJM) was thawed at 37° C. and gently transferred into pre-warmed InVitroGRO HT medium (BioreclamationIVT, Cat. S03317). The mixture was centrifuged at 70 relative centrifugal force (RCF) for 3 minutes at RT, and the supernatant was discarded. Pre-warmed InVitroGRO CP medium (BioreclamationIVT, Cat #S03316) was added to the cell pellet to gently re-suspend cells. The cells were seeded at the density of 5.8×10^4 cells per well to collagen I coated 96-well plate (Gibco, Cat. A1142803) with the InVitroGRO CP medium. All plates were incubated at 37° C. with 5% CO2 and 85% humidity.
At 20 hours after plating, the medium was changed to PHH culture medium (Dulbecco's Modified Eagle Medium (DMEM)/F12 (1:1) (Gibco, Cat. 11320-033), 10% fetal bovine semm (Gibco Cat. 10099141), 100 U/mL penicillin, 100 μg/mL streptomycin (Gibco, Cat. 151401-122), […] (Invitrogen Cat. PHG0311L), 20 ng/mL dexamethasone (Sigma, Cat. D4902) and 250 ng/mL human recombinant insulin (Gibco, Cat. 12585-014)). And the cells were incubated at 37° C. with 5% CO2 and 85% humidity for 4 hours. The medium was then changed to pre-warmed PHH culture medium containing 4% polyethylene glycol (PEG) MW8000 (Sigma, Cat. P1458-50 ML) and 1% DMSO (Sigma, Cat. D2650). 5.8×10^6 genomic equivalents of HBV were added into the medium.
At 24 hours post-infection, the cells were gently washed with PBS and refreshed with PHH culture medium supplemented with 1% DMSO, and 0.25 mg/mL Matrix gel (Corning, Cat. 356237) at 200 μL per well. All plates were immediately placed in at 37° C. CO2 incubator.
24 hours later, serial dilutions of compounds made with DMSO were further diluted with the same culture medium (PHH culture medium supplemented with 1% DMSO and 0.25 mg/mL Matrix gel as described above) before they were added to the cells to reach desired final compound concentrations and 1% DMSO concentration. The medium containing the compounds were refreshed every three days.
At 9 days post-compound treatment, extracellular HBsAg level were measured with Chemiluminescence Immuno Assay (CLIA) kit (Autobio, HBsAg Quantitative CLIA). Extracellular HBV DNA was extracted by MagNA Pure 96 system (Roche) and then determined by quantitative PCR with the following primers and probe: […]
HBsAg IC50 and HBV DNA IC50 values were derived from the dose-response curve using 4 parameter logistic curve fit method. The compounds of formula (I) have HBsAg IC50<20 μM, particularly <1 μM; and HBV DNA IC50<50 μM.

[3] = Human microsome stability assay; format: in vitro ADME; details: human liver microsomes, 1 μM test compound, 0.5 mg/mL microsomal protein, 37° C., pH 7.4, 0-30 minutes
Method in brief: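 Compound (1 μM) incubated at 37 °C with human liver microsomes (0.5 mg/mL protein) in 100 mM potassium phosphate, pH 7.4, after 10 min preincubation; started with NADPH regenerating system. Sampled at 0–30 min, quenched with cold ACN; remaining parent quantified by LC-MS/MS, with no-NADPH controls.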

[4] = Hepatitis B virus, HepDES19, 120 h, read-out: IC50 (HBeAg level, HepDES19 primary screen assay), HepDES19 cells, 5 days compound incubation, HBeAg ELISA
[5] = Hepatitis B virus, Hepatocyte, 216 h, read-out: HBsAg IC50, Cryopreserved PHH infected with HBV, 9 days post-compound treatment, extracellular HBsAg

With Cc1cc(-c2cc(=O)c3cccc(Cl)c3o2)c(OC2CC(C(=O)O)C2)cc1Cl (stereo in doubt) [Example B012-B, Trans-3-[5-chloro-2-(8-chloro-4-oxo-chromen-2-yl)-4-methyl-phenoxy]cyclobutanecarboxylic acid] the IC50 ([1]; read-out: IC50 (HBeAg level, HepDES19 primary screen assay), HepDES19 cells, 5 days compound incubation, HBeAg ELISA) was 2720 nM and the IC50 ([2]; read-out: HBsAg IC50, Cryopreserved PHH infected with HBV, 9 days post-compound treatment, extracellular HBsAg) was 2560 nM.

In the case of COC(=O)CCOc1cc(C(F)(F)F)ccc1-c1cc(=O)c2cccc(Cl)c2o1 [Example A002, methyl 3-[2-(8-chloro-4-oxo-chromen-2-yl)-5-(trifluoromethyl)phenoxy]propanoate], the IC50 [1, 4] is reported as 795 nM and the IC50 [2, 5] is reported as 1820 nM.

Cc1cc(-c2cc(=O)c3cccc(Cl)c3o2)c(OCCC(=O)O)cc1Br [Example A006, 3-[5-bromo-2-(8-chloro-4-oxo-chromen-2-yl)-4-methyl-phenoxy]propanoic acid] gave an IC50 [1, 4] of 1230 nM and an IC50 [2, 5] of 1080 nM.

Molecule O=C(O)CCOc1cc2c(cc1-c1cc(=O)c3cccc(Cl)c3o1)OCO2 [Example A011, 3-[[6-(8-chloro-4-oxo-chromen-2-yl)-1,3-benzodioxol-5-yl]oxy]propanoic acid] has an IC50 [1, 4] of 415 nM and an IC50 [2, 5] of 931 nM.

COc1cc(OCCC(=O)O)c(-c2cc(=O)c3cccc(Cl)c3o2)cc1C [Example A012, 3-[2-(8-chloro-4-oxo-chromen-2-yl)-5-methoxy-4-methyl-phenoxy]propanoic acid] showed an IC50 [1, 4] of 650 nM and an IC50 [2, 5] of 2110 nM.

For Cc1ccc(-c2cc(=O)c3cccc(Cl)c3o2)c(OCCC(=O)O)c1 [Example A013, 3-[2-(8-chloro-4-oxo-chromen-2-yl)-5-methyl-phenoxy]propanoic], the IC50 [1, 4] was 656 nM and the IC50 [2, 5] was 1910 nM.

In the case of O=C(O)CCOc1cc(OC(F)(F)F)c(Br)cc1-c1cc(=O)c2cccc(Cl)c2o1 [Example A016, 3-[4-bromo-2-(8-chloro-4-oxo-chromen-2-yl)-5-(trifluoromethoxy)phenoxy]propanoic acid], the IC50 [1, 4] is reported as 1030 nM and the IC50 [2, 5] is reported as 828 nM.

Molecule O=C(O)CCOc1cc(Br)cc(F)c1-c1cc(=O)c2cccc(Cl)c2o1 [Example A020, 3-[5-bromo-2-(8-chloro-4-oxo-chromen-2-yl)-3-fluoro-phenoxy]propanoic acid] has an IC50 [1, 4] of 780 nM and an IC50 [2, 5] of 7500 nM.

Work on O=C(O)CCCOc1cc(Br)ccc1-c1cc(=O)c2cccc(Cl)c2o1 [Example A055, 4-[5-bromo-2-(8-chloro-4-oxo-chromen-2-yl)phenoxy]butanoic acid] yielded an IC50 [1, 4] of 95.5 nM and an IC50 [2, 5] of 2380 nM.

With Cc1cc(-c2cc(=O)c3cccc(Cl)c3o2)c(OCC(=O)N2C[C@@H](O)[C@@H](O)C2)cc1Br [Example A090, 2-[4-bromo-5-methyl-2-[2-oxo-2-[rac-(3S,4R)-3,4-dihydroxypyrrolidin-1-yl]ethoxy]phenyl]-8-chloro-chromen-4-one] the IC50 [1, 4] was 4790 nM and the IC50 [2, 5] was 9350 nM.

In the case of O=C(COc1cc(C(F)(F)F)ccc1-c1cc(=O)c2cccc(Cl)c2o1)N1CCOCC1 [Example A092, 8-chloro-2-[2-(2-morpholino-2-oxo-ethoxy)-4-(trifluoromethyl)phenyl]chromen-4-one], the IC50 [1, 4] is reported as 1130 nM and the IC50 [2, 5] is reported as 2800 nM.

Molecule O=C(O)C1CC(Oc2cc(Br)ccc2-c2cc(=O)c3cccc(Cl)c3o2)C1 (stereo not drawn) [Example B001, 3-[5-bromo-2-(8-chloro-4-oxo-chromen-2-yl)phenoxy]cyclobutanecarboxylic acid] has an IC50 [1, 4] of 213 nM and an IC50 [2, 5] of 1030 nM.

Cc1cc(-c2cc(=O)c3cccc(Cl)c3o2)c(O[C@H]2C[C@@H](C(=O)O)C2)cc1Br [Example B013-A, Cis-3-[5-bromo-2-(8-chloro-4-oxo-chromen-2-yl)-4-methyl-phenoxy]cyclobutanecarboxylic acid] showed an IC50 [1, 4] of 919 nM and an IC50 [2, 5] of 7300 nM.

Cc1cc(-c2cc(=O)c3cccc(Cl)c3o2)c(O[C@H]2C[C@H](C(=O)O)C2)cc1Br [Example B013-B, Trans-3-[5-bromo-2-(8-chloro-4-oxo-chromen-2-yl)-4-methyl-phenoxy]cyclobutanecarboxylic acid] showed an IC50 [1, 4] of 2450 nM and an IC50 [2, 5] of 1020 nM.

Molecule COc1cc(O[C@H]2C[C@H](C(=O)O)C2)c(-c2cc(=O)c3cccc(Cl)c3o2)cc1C [Example B017, 3-[2-(8-chloro-4-oxo-chromen-2-yl)-5-methoxy-4-methyl-phenoxy]cyclobutanecarboxylic acid] has an IC50 [1, 4] of 4850 nM and an IC50 [2, 5] of 4870 nM.

Cc1ccc(-c2cc(=O)c3cccc(Cl)c3o2)c(O[C@H]2C[C@H](C(=O)O)C2)c1 [Example B018-B, Trans-3-[2-(8-chloro-4-oxo-chromen-2-yl)-5-methyl-phenoxy]cyclobutanecarboxylic acid] gave an IC50 [1, 4] of 548 nM and an IC50 [2, 5] of 4700 nM.

In the case of CCc1ccc(-c2cc(=O)c3cccc(Cl)c3o2)c(O[C@H]2C[C@@H](C(=O)O)C2)c1 [Example B019-A, Cis-3-[2-(8-chloro-4-oxo-chromen-2-yl)-5-ethyl-phenoxy]cyclobutanecarboxylic acid], the IC50 [1, 4] is reported as 1030 nM and the IC50 [2, 5] is reported as 3960 nM.

In the case of O=C(O)[C@@H]1CCN(C(=O)COCCOc2cc(Br)ccc2-c2cc(=O)c3cccc(Cl)c3o2)C1 [Example C111, (3R)-1-[2-[2-[5-bromo-2-(8-chloro-4-oxo-chromen-2-yl)phenoxy]ethoxy]acetyl]pyrrolidine-3-carboxylic acid], the “Clearance of Human microsome” value [3] is reported as 6.15 mL/min/kg and the IC50 [1, 4] is reported as 1250 nM.

In the case of O=C(O)[C@H]1CCN(C(=O)COCCOc2cc(Br)ccc2-c2cc(=O)c3cccc(Cl)c3o2)C1 [Example C112, (3S)-1-[2-[2-[5-bromo-2-(8-chloro-4-oxo-chromen-2-yl)phenoxy]ethoxy]acetyl]pyrrolidine-3-carboxylic acid], the “Clearance of Human microsome” value [3] is reported as 6.15 mL/min/kg and the IC50 [1, 4] is reported as 11400 nM.

For O=C(O)COCC(O)COc1cc(C(F)(F)F)ccc1-c1cc(=O)c2cccc(Cl)c2o1 (stereo not drawn) [Example C115, 2-[3-[2-(8-chloro-4-oxo-chromen-2-yl)-5-(trifluoromethyl)phenoxy]-2-hydroxy-propoxy]acetic acid], the “Clearance of Human microsome” value [3] was 6.15 mL/min/kg and the IC50 [1, 4] was 19200 nM.

With O=C(COCCOc1cc(Br)ccc1-c1cc(=O)c2cccc(Cl)c2o1)NS(=O)(=O)C1CC1 [Example C116, 2-[2-[5-bromo-2-(8-chloro-4-oxo-chromen-2-yl)phenoxy]ethoxy]-N-cyclopropylsulfonyl-acetamide] the “Clearance of Human microsome” value [3] was 6.15 mL/min/kg and the IC50 [1, 4] was 9130 nM.

In the case of O=C(COCCCOc1cc(C(F)(F)F)ccc1-c1cc(=O)c2cccc(Cl)c2o1)NS(=O)(=O)C1CC1 [Example C117, 2-[3-[2-(8-chloro-4-oxo-chromen-2-yl)-5-(trifluoromethyl)phenoxy]propoxy]-N-cyclopropylsulfonyl-acetamide], the “Clearance of Human microsome” value [3] is reported as 7.45 mL/min/kg and the IC50 [1, 4] is reported as 2520 nM.

In the case of O=C(COCCOc1cc(C(F)(F)F)ccc1-c1cc(=O)c2cccc(Cl)c2o1)NS(=O)(=O)C1CC1 [Example C118, 2-[2-[2-(8-chloro-4-oxo-chromen-2-yl)-5-(trifluoromethyl)phenoxy]ethoxy]-N-cyclopropylsulfonyl-acetamide], the “Clearance of Human microsome” value [3] is reported as 6.15 mL/min/kg and the IC50 [1, 4] is reported as 14700 nM.

In the case of CS(=O)(=O)NC(=O)[C@H]1C[C@@H](OCCOc2cc(C(F)(F)F)ccc2-c2cc(=O)c3cccc(Cl)c3o2)C1 [Example C121, Cis-3-[2-[2-(8-chloro-4-oxo-chromen-2-yl)-5-(trifluoromethyl)phenoxy]ethoxy]-N-methylsulfonyl-cyclobutanecarboxamide], the “Clearance of Human microsome” value [3] is reported as 8.68 mL/min/kg and the IC50 [1, 4] is reported as 5890 nM.

— US11708344B2, “Flavone derivatives for the treatment and prophylaxis of hepatitis B virus disease” (Hoffmann-La Roche Inc., priority 2018, dated 2023)
